Measured values as given in US20220025003A1, “REAGENTS AND METHODS FOR CONTROLLING PROTEIN FUNCTION AND INTERACTION” (University of Washington, priority 2018, published 2022).

What was measured:
GFP, CD95 and CXCR4 = assay: 3-gene experiment (GFP, CD95, CXCR4) by RT-qPCR; assay type: cell-based; conditions: 10 μM danoprevir, 1 μM grazoprevir, 1 μM asunaprevir
Text: Cells were harvested on day 5 as described above for other samples to be analyzed to qPCR.

NS3a in NIH3T3 cells [1] = assay: Confocal microscopy for colocalization analysis (fixed cells); assay type: cell-based; conditions: 10 μM drug, 1 h
Description: A Leica SP8× system was used for confocal microscopy. […] TagBFP emission was recorded on a PMT detector, and EGFP and mCherry™ were detected by separate HyD™ detectors.
Colocalization experiments were performed in NIH3T3 cells (Flp-In-3T3, Thermo Fisher Scientific). For fixed-cell experiments, cells were plated at 3×10^4 cells/mL on sterile glass coverslides placed in 12-well culture plates. […] One day after transfection, cells were treated with drug or DMSO and fixed. Drug additions were performed by exchanging the media for DMEM+10% v/v FBS plus drug. To fix, cells were washed once with DPBS (Thermo Fisher Scientific), then incubated with 4% v/v paraformaldehyde in DPBS for 15 minutes. After washing twice with DPBS, coverslides with cells were removed from the plate and mounted on glass slides using Fluoromount-G (SouthernBiotech).
Colocalization of NS3a and DNCR1 at the plasma membrane, nucleus, mitochondria and Golgi was performed with two sets of constructs, with either NS3a or DNCR1 as the immobilized component. mCherry™-NS3a was used with Tom20-DNCR1-EGFP, DNCR1-EGFP-Giantin, and 3×NLS-DNCR1-EGFP. […] Colocalization was analyzed after 1 h of 10 μM drug or equal volume DMSO treatment.
All images were analyzed using ImageJ. […] EGFP fluorescence was quantified in the ROI over the timecourse. […] The cytoplasmic fluorescence was normalized to the value in the first and last frame for each cell. […]

[2] = system: RAS/ERK pathway in HEK293 cells; assay: Activation of NS3a-CDAR, phospho-ERK blot; assay type: cell-based; conditions: 10 μM drug, 60 min
Description: 18-24 hours prior to transfection, 3.0×10^5 HEK293 cells were plated onto poly-D-lysine 12 well plates. Immediately prior to transfection, media was aspirated and cells were washed with 1 mL of pre-warmed (37° C.) PBS, then serum starved with FBS-free DMEM. Following serum starvation, cells were transfected with 1 μg of FLAG-tagged NS3a-CDAR, BH3-NS3a-CDAR, or an empty pCDNA5 vector. Transfected cells were allowed to serum stave for 18-20 hours prior to drug treatment. For drug treatment, serum-free media was prepared with DMSO or 10 μM of a drug. Media was aspirated, washed once with pre-warmed DPBS, then treated with drug/DMSO media for the requisite amount of time. Media was subsequently aspirated and the cells were washed twice with 1 mL chilled PBS, then lysed with 75 μL Mod. RIPA buffer (50 mM Tris, pH 7.8, 1% IGEPAL CA-630, 150 mM NaCl, 1 mM EDTA, 2 mM Na3VO4, 30 mM NaF, Pierce Protease Inhibitor Tablet). Cleared lysates were subjected to SDS-PAGE and transferred to nitrocellulose. Blocking and antibody incubations were done in TBS with 0.1% Tween-20 (v/v) and blocking buffer (Odyssey). Primary antibodies were all purchased from Cell Signaling Technologies and were diluted as follows: Total ERK (1:2500, #9107), phosphorylated ERK (1:2500, #4370), FLAG (1:2,500, #D6W5B). Blots were washed three times in TBS with 0.1% Tween-20. Antibody binding was detected by using near-infrared-dye-conjugated secondary antibodies and visualized on the LI-COR Odyssey scanner. Blots were quantified via densitometry with Image Studio (LI-COR).

NS3a in NIH3T3 cells [3] = assay: Confocal microscopy for colocalization analysis (fixed cells); assay type: cell-based; conditions: for DNCR2-EGFP colocalization with mitochondrial Tom20-mCherry-NS3a: 10 μM drug, 1 h
HeLa cells = assay: Widefield microscopy for signaling phenotype analysis; assay type: cell-based; conditions: EGFP-DNCR2-TIAM, BFP-GNCR1-LARG and NS3a-CAAX in HeLa cells
Description: Widefield images were collected in an environmental chamber with humidity control, 37° C., and 5% CO2 on a Leica DMi8 automated fluorescence microscope. Cells were plated on glass-bottomed 96-well plates (Cellvis). Plates were treated with 10 μg/mL bovine fibronectin (Sigma Aldrich) for 1 hour and washed once with PBS.
The cell line used was TRex™-HeLa (ThermoFisher Scientific), into which Lifeact-mCherry™ was stably integrated into the doxycycline-regulated Flp-In site by co-transfection of the pCDNA5-FRT/TO-Lifeact-mCherry™ vector with the Flp recombinase plasmid pOG44 (ThermoFisher Scientific) according to manufacturer's protocols. Lifeact-mCherry™ was induced by addition of 1 μg/mL doxycycline to culture media. For expression of signaling effector proteins, 1 day prior to imaging, 5×10^6 cells were transiently transfected with 10 μg DNA in a 100 μL electroporation tip using a Neon transfection system (ThermoFisher Scientific) according to manufacturer's recommendations for HeLa cells. 5×10^3 cells were plated in each well of the 96-well plate used for imaging. Cells recovered in complete DMEM with 10% FBS overnight. […] For Rac/Rho regulation, the construct PB-NS3a-CAAX-IRES-EGFP-DNCR2-TIAM-P2a-BFP-GNCR1-LARG was used, with images collected for the mCherry™ (Lifeact) and EGFP (DNCR2-TIAM) channels. […]

[4] = system: GFP reporter gene in HEK293T cells; assay: dciCas9-mediated transcription; assay type: cell-based; conditions: 10 μM A115 and 10 μM grazoprevir
Description: For FACS analysis, 10,000 single cell events were collected for each of the samples run. […] The gathered FACS data were analyzed using FlowJo (v.10.1).

[5] = system: mCherry reporter gene in HEK293T cells; assay: Chemically-disruptable Gal4(DBD)-NS3a(H1)/ANR-VPR transcriptional regulation; assay type: cell-based; conditions: 1 μM drug, 24 hours
Description: Cells were subsequently transfected with 1 μg of the Gal4 reporter plasmid (UAS-mCherry™/CMV-Gal4-NS3a(H1)-P2A-ANR-Myc-BFP-VPR-NLS) in OptiMem™. […] Supernatant was subsequently removed and the cells were re-suspended in 400 μL DPBS and analyzed on a FACS LSRII (BD Biosciences).
For Gal4/NS3a-CDP mediated transcriptional activation FACS experiments, 10,000 single cell events were collected for each of the samples run. […] The gathered FACS data were analyzed using FlowJo™ (v.10.1).

CXCR4 = assay: cells; conditions: Homo sapiens, read-out: EC50 (CXCR4 expression)
NS3a protease = target: T1, NS3a protease (Hepatitis C virus genotype 1b, UniProt Q9WMX2, A1176V/C1042I/E1056D/L1047A/L1120M/Q1112P/R1052K/V1062L/V1196I); assay: NS3a protease inhibition FRET assay; assay type: biochemical; conditions: ANR-GST fusion, FRET-based protease assay
T1 construct: SNAPtag-NS3a-His6; made in house; host or cells: E. coli BL21(DE3)
Description: The potency of ANR against NS3a protease was determined via a FRET assay. Titrations of ANR-GST (3-fold serial dilutions starting at 10 μM) were added to a black 96-well plate (Corning, product number 3720) containing 50 nM SNAPtag-NS3a. Reactions were incubated with NS3a-SNAPtag at room temperature for 1 hour. To each well was simultaneously added substrate M-2235 (Bachem) to a final concentration of 5 μM and reactions were monitored by measuring the fluorescence intensity every minute for 30 minutes at 22° C. on a Perkin Elmer EnVision™ fluorometer (excitation, 360 nm; emission 460 nm). Each measurement was carried out in triplicate. Slopes of the fluorescence increase were compared to a no-protease control. A nonlinear regression model was used to fit curves using GraphPad™ Prism.

NS3a = target: T2, NS3a (Hepatitis C virus genotype 1b, UniProt Q9WMX2, A1176V/E1056D/L1047A/L1120M/Q1112P/R1052K/V1062L/V1196I); assay: Fluorescence polarization binding assay (FB50) with FAM-ANR
T2 construct: Avi-His6-NS3a; the text calls the FP protein non-biotinylated) (N); made in house; host or cells: E. coli BL21 (DE3)
Description: (§1) The affinities of the NS3a variants for ANR were determined using a fluorescence polarization assay. Fluorescently labeled ANR (FAM-ANR, FIG. 5B) was obtained as a crude mixture from GenScript™ and purified by HPLC. Titrations of recombinant NS3a variants (3-fold serial dilutions, starting at 5 μM) were diluted in FP-Buffer (50 mM HEPES, pH 7.8, 100 mM NaCl, 5 mM DTT, 1% Glycerol, 0.01% Tween, 5% v/v DMSO). These dilutions were added to a wells containing FAM-ANR (final concentration=10 nM). FAM-ANR/NS3a solutions were incubated at room temperature in the dark for 1 hour. Fluorescence polarization was measured on a Perkin Elmer EnVision™ fluorometer (excitation, 495 nm; emission 520 nm). All measurements were carried out in black 96-well plates (Corning, product #: 3720) and run in triplicate. Anisotropy values were obtained and a nonlinear regression model was used to determine binding constants in GraphPad™ Prism.

NS3a* = target: T3, NS3a* (Hepatitis C virus genotype 1a, UniProt P27958, C1073S/C1078L/C1185S/I1043Q/I1044E/I1098T/L1039E/L1040E/L1047Q/L1179I/N1200S/P1112Q/Q1106K/T1100M/T1173A); assay: as above
T3 construct: His6-NS3a; made in house; host or cells: E. coli BL21 (DE3)
Description: as §1

Compound	transcriptional output state in 3-gene system (GFP, CD95 and CXCR4)	Colocalization of DNCR1-EGFP and NS3a-mCherry (NS3a in NIH3T3 cells [1])	phospho-ERK levels in cells expressing NS3a-CDAR [2]	DNCR2-EGFP colocalization with mitochondrial Tom20-mCherry-NS3a (NS3a in NIH3T3 cells [3])	cell shape change (HeLa cells)	GFP expression on co-administration with A115 [4]	mCherry expression after drug treatment [5]	EC50 (CXCR4)	Colocalization of DNCR2-EGFP and GNCR1-BFP with NS3a-mCherry-CAAX (NS3a in NIH3T3 cells [3]; 5 μM drug)	Colocalization of NS3a-mCherry with GNCR1-BFP-CAAX or Tom20-DNCR2-EGFP (NS3a in NIH3T3 cells [3]; 5 μM drug, 15 min)	apparent IC50 against NS3a activity (NS3a protease)	binding to NS3a (NS3a)	affinity for NS3a* (NS3a*)
C=C[C@@H]1C[C@]1(NC(=O)[C@@H]1C[C@@H](Oc2ncc(OC)c3ccc(Cl)cc23)CN1C(=O)[C@@H](NC(=O)OC(C)(C)C)C(C)(C)C)C(=O)NS(=O)(=O)C1CC1 [asunaprevir]	no gene expression	much lower correlation	robust increase in phospho-ERK levels	neither grazoprevir nor asunaprevir induced DNCR2-EGFP colocalization									
C=C[C@@H]1C[C@]1(NC(=O)[C@@H]1C[C@@H]2CN1C(=O)[C@H](C(C)(C)C)NC(=O)O[C@@H]1C[C@H]1CCCCCc1nc3ccc(OC)cc3nc1O2)C(=O)NS(=O)(=O)C1CC1 [grazoprevir]	CXCR4 expression under control of GNCR1	much lower correlation	robust increase in phospho-ERK levels	neither grazoprevir nor asunaprevir induced DNCR2-EGFP colocalization	caused cell contraction	reversed	decreased mCherry™ expression to background levels	160 ± 30 pM	GNCR1/NS3a colocalization	exclusively colocalized NS3a-mCherry™ to plasma membrane-targeted GNCR1-BFP-CAAX			
genetically-encoded peptide inhibitor of NS3a, GELDELVYLLDGPGYDPIHSD (SEQ ID NO:14); tested as ANR-GST and FAM-ANR											less than the concentration of NS3a protease used in the assay	binds tightly	very low affinity
